Assay results published in PubChem BioAssay (NCI).
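Five compound concentrations were applied to cells in 96-well plates for 48 hours; endpoints were derived by simple linear interpolation of the resulting dose-response curve. GI50: concentration for 50% inhibition of growth. TGI: concentration producing complete growth inhibition.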 The source made the active and inactive calls. Rule as the data show it: active = GI50 below about 0.43 µM; inactive = the rest.

Legend:
Test in all cases: DTP human tumour cell line panel, 48 h
K-562 leukemia = tested on: K-562 leukemia
MALME-3M melanoma = tested on: MALME-3M melanoma
MCF7 breast = tested on: MCF7 breast
MDA-MB-231 breast = tested on: MDA-MB-231 breast
NCI-H460 lung = tested on: NCI-H460 lung
PC-3 prostate = tested on: PC-3 prostate
SNB-19 CNS = tested on: SNB-19 CNS
TK-10 renal = tested on: TK-10 renal
CAKI-1 renal = tested on: CAKI-1 renal

Compound	GI50 (K-562 leukemia) [µM]	TGI (K-562 leukemia) [µM]	GI50 (MALME-3M melanoma) [µM]	TGI (MALME-3M melanoma) [µM]	GI50 (MCF7 breast) [µM]	TGI (MCF7 breast) [µM]	GI50 (MDA-MB-231 breast) [µM]	TGI (MDA-MB-231 breast) [µM]	GI50 (NCI-H460 lung) [µM]	TGI (NCI-H460 lung) [µM]	GI50 (PC-3 prostate) [µM]	TGI (PC-3 prostate) [µM]	GI50 (SNB-19 CNS) [µM]	TGI (SNB-19 CNS) [µM]	GI50 (TK-10 renal) [µM]	TGI (TK-10 renal) [µM]	TGI (CAKI-1 renal) [µM]	GI50 (CAKI-1 renal) [µM]	outcome (MCF7 breast)
NCCNc1c2c(c(NCCN)c3c(CO)c[nH]c13)C(=O)c1ccccc1C2=O	9.54	> 100	8.51	26.3	5.59	82	15.5	51.4	25.7	> 100	20.1	> 100	3.34	> 100	20.7	75.1			
CC(C)(C)NNC(=O)/C(=C/c1ccc([N+](=O)[O-])cc1)NC(=O)c1ccccc1		> 100		> 100						> 100				> 100		> 100	> 100		
CN(C)c1ccc2c(=O)c3ccccc3oc2n1		> 100		> 100						> 100				> 100		> 100	> 100		
COc1ccc(C2CC(=O)c3c(O)cc(O)cc3O2)cc1O (configuration not stated)		> 100		> 100						> 100				> 100		> 100	> 100		
Cc1ccccc1NC(=O)C(=O)C(C#N)c1ccc(Cl)cc1 (configuration not stated)		> 100		> 100						56				> 100		> 100	> 100		
N#Cc1ccccc1NC(=O)/C(=N\N)C(C(=O)c1ccncc1)C1OC(=O)c2ccccc21 (configuration not stated)		> 100		> 100						> 100				> 100		> 100			
O=C(O)C/C(=C\c1ccco1)C(=O)O		> 100		> 100		> 100		> 100				> 100		> 100		> 100	> 100		
COc1ccc(OC)c(/C=N/NC(=O)Cc2csc3nc(-c4ccc(Br)cc4)cn23)c1	2.94	6.94			29.7	> 100	16.4	41.2	> 100	> 100	13.5	93.8	31.4	> 100	16.3	51.2	34.2	12.6	
Cc1ccc(S(=O)(=O)c2c(N)c3nc4ccccc4n3c3nc4ccccc4nc23)cc1		> 100		> 100						> 100				> 100			> 100		
CC12CCC3C(CCC4Cc5[nH]c6ccccc6c5CC43C)C1CCC2O (configuration not stated)			2.92	> 100	0.373	> 100	2.09	7.16	0.609	> 100	3.13	> 100	2.89	> 100	2.73	> 100	> 100	0.791	
O=C1[C@@H]2C(c3ccccc3Br)=NO[C@@H]2C(=O)N1c1ccc(Cc2ccc(N3C(=O)[C@H]4C(c5ccccc5Br)=NO[C@H]4C3=O)cc2)cc1		> 100		> 100						> 100						> 100	> 100		
C[N+](C)(C)CC1CCCC/C1=N\OC(=O)c1ccccc1 (configuration not stated)		> 100		> 100						> 100				> 100		> 100	> 100		
CC(NS(=O)(=O)c1ccc([N+](=O)[O-])cc1)C(=O)O (configuration not stated)		> 100		> 100						> 100				> 100		> 100	> 100		
COC(=O)CCC(=O)C(=O)OC	33500		37900				39500		34100		27800	84500	34200						inactive
Nc1ccc2c(c1)C(=O)C(=O)c1c-2nc2ccccn12	1.09	3.88	0.271	0.572	1.06	3.07	1.75	4.96	0.561	3.12	1.78	10.5	1.64	3.23	15.3	29.3			
COc1ccccc1NC(=O)c1sc2nc3c(cc2c1N)C(=O)CCC3	1.53	> 100	1.75	> 100	4.8	> 100	2.91	> 100	3.06	> 100			12.8	> 100					
C/C(CN1C(=O)c2ccccc2C1=O)=N\NS(=O)(=O)c1ccc(C)cc1		> 100		> 100						> 100				> 100		> 100	> 100		
CN1N=CSC12C(=O)N(c1ccc(Cl)cc1)C(=O)N2c1ccc(Cl)cc1 (configuration not stated)		22.3		> 100						20.4				69.5		81.1	> 100		
CCCCCCCCCCCCNC(C)=O				34.5		32.4		28.6		32.7		28.4		31.2		31.6	39.3		
Cc1nc(-c2cccc(Nc3nc(-c4ccc(Cl)cc4)cs3)c2)cs1	8.06	21.4			14.7	43.7	11.1	23.3	12.4	31.6	8.96	21.2	12.8	28.9	8.31	17.8	24.6	11.8	
FC(F)(F)Oc1cccc(-c2cnc3ccc(-c4ccncc4)nn23)c1	3.49	> 100	2.35	> 100	1.56	6.12	3.18	> 100	0.996	> 100			2.07	> 100	1.14	9.76	4.11	0.417	
CCOC(=O)Nc1cc2nnc(-c3ccccc3)nc2c(N)n1		> 100		87.7						29.8				> 100		> 100	> 100		
COc1cc(/C=C/c2ccncc2)cc(OC)c1OC		> 100		> 100						> 100				> 100		> 100	> 100		
